Measurements from patent US5468875A, “1-azabicycloheptane derivatives” (American Home Products Corporation, priority 1994, dated 1995).
Read-outs that look alike come from different tables or passages of the source.

Experiments:
[1] = target: T1, M1 acetylcholine receptors (Homo sapiens, UniProt P11229); experiment: stimulation of phosphoinositide (PI) hydrolysis in CHO cells transfected with M1 receptor cDNA; type: cell-based; settings: for Emax: CHO, 1 h; for functional m1 muscarinic agonism: exo versus endo, in words; for EC50: m1 receptors in CHO cells, read-out: % PI Hydrolysis ml receptors in CHO cells ED50
T1 sequence (P11229 1-460): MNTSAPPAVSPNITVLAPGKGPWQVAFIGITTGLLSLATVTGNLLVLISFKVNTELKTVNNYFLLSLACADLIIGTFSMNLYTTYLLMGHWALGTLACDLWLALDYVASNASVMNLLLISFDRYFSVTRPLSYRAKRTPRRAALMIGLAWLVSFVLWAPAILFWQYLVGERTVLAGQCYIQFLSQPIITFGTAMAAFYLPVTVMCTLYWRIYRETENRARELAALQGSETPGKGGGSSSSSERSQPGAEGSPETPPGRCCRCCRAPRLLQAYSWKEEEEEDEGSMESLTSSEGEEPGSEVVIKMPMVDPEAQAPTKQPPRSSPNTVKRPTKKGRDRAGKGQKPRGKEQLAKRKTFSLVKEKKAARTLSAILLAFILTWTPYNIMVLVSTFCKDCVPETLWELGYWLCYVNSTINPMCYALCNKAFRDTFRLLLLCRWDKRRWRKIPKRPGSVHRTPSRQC

m1 receptor = m1 receptor (Homo sapiens, UniProt P11229); experiment: biochemical; settings: ml 3H QNB Binding in CHO cells Ki, 0.23 nM [3H]QNB, 37° C., one hour
[2] = test system: scopolamine disrupted rat performance; experiment: eight arm radial maze test, scopolamine disrupted performance; type: in vivo, Sprague-Dawley male rats; settings: ip, rats, test compound i.p., scopolamine HBr 0.3 mg/kg, s.c., read-out: minimum effective dose (MED), reversal of scopolamine disrupted rat performance
Description: The compound of Example 3 was also tested in the eight arm radial maze test procedure in which Sprague-Dawley male rats at 85% of their free feeding weight are trained to obtain two food pellets from food cups placed at the ends of four of the eight arms radiating from a circular central area of the maze, in a five minute period. After training to a level of error (rerum to a previously entered arm is error) equal to or less than 2, the rats performance is disrupted with scopolamine HBr (0.3 mg/kg, s.c.) and test compound dosage (i.p.). The number of errors are then determined and compared with control receiving scopolamine alone.

[3] = test system: scopolamine treated animals; experiment: reversal of scopolamine-induced hyperactivity, swim tank test; type: in vivo, Male CFW mice; settings: Mus musculus, ip, 5 min, mice, scopolamine.HBr 0.3 mg/kg i.p., swim distance, read-out: minimum effective dose (MED), reversal of hyperactivity of scopolamine treated animals
Description: The compound of Example 3, representative of the other compounds of this invention, was also tested in accordance with the procedure of Symons et al, Soc. Neuroscience Abstracts 12:2, 897 (1986) in which Male CFW mice, 25 to 35 grams in weight are given the test compound in suitable vehicle plus 0.3 mg/kg scopolamine.HBr in suitable vehicle, i.p.(3 groups of 12 animals each) or vehicle alone (1 group of 12 animals ) or vehicle plus scopolamine.HBr (1 group of 12 animals). The mice are placed in a swim tank, individually, containing 10 cm H2 O for a period of 5 minutes and the distance each animal swims is recorded.

[4] = test system: patients with mild to moderate Alzheimer's Disease; settings: cited from earlier work; for improvement in memory: patients with mild to moderate Alzheimer's Disease
[5] = cited from earlier work
muscarinic = settings: cited from earlier work
m1 receptors = settings: cited from earlier work
[6] = read-out: % PI Hydrolysis ml receptors in CHO cells 30x Ki (μM) carb=100%
[7] = read-out: % PI Hydrolysis ml receptors in CHO cells maximum % carbachol=100%

## CNC(=O)O[C@H]1CN2CC[C@H]1C2 (relative stereo) [Example 1, (exo)-Methylcarbamic acid 1-aza-bicyclo[2.2.1]hept-3-yl ester]
[1]; [6]
  Emax: 61.9%
[1]; [7]
  Emax: 54.9%
[1]
  functional m1 muscarinic agonism: enhanced muscarinic agonism
  EC50: 6.9 µM
m1 receptor
  Ki: 29.3 µM

## CNC(=S)O[C@H]1CN2CC[C@H]1C2 (relative stereo) [Example 4, (exo)-Methylthiocarbamic acid 1-aza-bicyclo[2.2.1]hept-3-yl ester]
[1]; [6]
  Emax: 21.8%
m1 receptor
  Ki: 3.72 µM

## O=C(NCC(F)(F)F)O[C@H]1CN2CC[C@H]1C2 (relative stereo) [Example 9, (exo)-(2.2.2-Trifluoroethyl)carbamic acid 1-aza-bicyclo[2.2.1]hept-3-yl ester]
m1 receptor
  Ki: 14.5 µM

## O=C(NC1CC1)O[C@H]1CN2CC[C@H]1C2 (relative stereo) [Example 11, (exo)-Cyclopropylcarbamic acid 1-aza-bicyclo[2.2.1]hept-3-yl ester]
[1]; [6]
  Emax: 10.1%
m1 receptor
  Ki: 1.81 µM

## CNC(=O)O[C@H]1CN2CC[C@@H]1C2 (relative stereo) [endo azacycloheptane analog]
[1]
  functional m1 muscarinic agonism: not

## CNC(=O)O[C@H]1CN2CC[C@H]1C2 (single isomer, unassigned) [Example 2, (+)-(exo)-Methylcarbamic acid 1-aza-bicyclo[2.2.1]hept-3-yl ester]
m1 receptor
  Ki: 41.8 µM
[2]
  minimal effective dose: 1 mg/kg

## CNC(=O)O[C@H]1CN2CC[C@H]1C2 (single isomer, unassigned) [Example 3, (-)-(exo)-Methylcarbamic acid 1-aza-bicyclo[2.2.1]hept-3-yl ester]
[3]
  minimal effective dose: 30 mg/kg
[1]; [6]
  Emax: 71.9%
[1]; [7]
  Emax: 68.7%
[1]
  EC50: 9.8 µM
m1 receptor
  Ki: 26.6 µM

## CNC(=S)O[C@H]1CN2CC[C@H]1C2 (single isomer, unassigned) [Example 5, (+)-(exo)-Methylthiocarbamic acid 1-aza-bicyclo[2.2.1]hept-3-yl ester]
[1]; [7]
  Emax: 51.5%
[1]
  EC50: 2.9 µM
m1 receptor
  Ki: 6.93 µM

## CNC(=S)O[C@H]1CN2CC[C@H]1C2 (single isomer, unassigned) [Example 6, (-)-(exo)-Methylthiocarbamic acid 1-aza-bicyclo[2.2.1]hept-3-yl ester]
[1]; cho cells, 60 min
  % PI Hydrolysis ml receptors in CHO cells maximum % carbachol=100%: 69.7%
[1]
  EC50: 6.3 µM
m1 receptor
  Ki: 14.5 µM

## CCNC(=O)O[C@H]1CN2CC[C@H]1C2 (single isomer, unassigned) [Example 7, (+)-(exo)-Ethylcarbamic acid 1-aza-bicyclo[2.2.1]hept-3-yl ester]
m1 receptor
  Ki: 14.3 µM

## CCNC(=O)O[C@H]1CN2CC[C@H]1C2 (single isomer, unassigned) [Example 8, (-)-(exo)-Ethylcarbamic acid 1-aza-bicyclo[2.2.1]hept-3-yl ester]
[1]; [6]
  Emax: 58.8%
m1 receptor
  Ki: 21.5 µM

## O=C(NCC(F)(F)F)O[C@H]1CN2CC[C@H]1C2 (single isomer, unassigned) [Example 10, (-)-(exo)-(2.2.2-Trifluoroethyl)carbamic acid 1-aza-bicyclo[2.2.1]hept-3-ylester]
m1 receptor
  Ki: 17.6 µM

## O=C(NC1CC1)O[C@H]1CN2CC[C@H]1C2 (single isomer, unassigned) [Example 12]
m1 receptor
  Ki: 20.5 µM

## C#CCNC(=O)O[C@H]1CN2CC[C@H]1C2 (single isomer, unassigned) [Example 13, (-)-(exo)-Propargylcarbamic acid 1-aza-bicyclo[2.2.1]hept-3-yl ester]
[1]; [6]
  Emax: 39.4%
m1 receptor
  Ki: 14.5 µM

## COC(=O)C1=CCCN(C)C1 [Arecoline, arecoline]
[4]
  improvement in memory: demonstrated memory improvement in patients with mild to moderate Alzheimer's Disease
[5]
  half-life: short half-life

## CNC(=O)OC1CN2CCCC1C2 (stereo not drawn) [exo-1-azabicyclo[3.2.1oct-6-yl-N-methylcarbamate]
muscarinic
  muscarinic activity: having muscarinic activity

## CN(C)C(=O)OC1CC2CCCN(C2)C1 (stereo not drawn) [exo-1-azabicyclo[3.3.1]non-3-yl-N,N-dimethylcarbamate]
muscarinic
  muscarinic activity: having muscarinic activity

## CNC(=O)OC1CC2CCCN(C2)C1 (stereo not drawn) [exo-1-azabicyclo[3.3.1]non-3-yl-N-methylcarbamate]
muscarinic
  muscarinic activity: having muscarinic activity

## C[C@@H]1O[C@H](C[N+](C)(C)C)C[C@H]1O [muscarine]
m1 receptors
  activation of m1 receptors: able to fully activate m1 receptors

## Nc1c2c(nc3ccccc13)CCCC2 [tactine]
[4]; higher doses
  adverse side effects: adverse side effects especially at the higher doses where it is most effective
[4]
  improvement in memory: improvement in memory can be shown in patients with mild to moderate Alzheimer's Disease
